Measurements as given in US20160339074A1, “PHARMACEUTICAL COMPOSITION OF SELECTIVE HCV NS3/4A INHIBITORS” (MERCK SHARP & DOHME CORP., priority 2014, published 2016).
≈ marks a conversion by molar mass, not a printed value. Where two headings read alike, the source gives them in different places.

What was measured:
[1] = thermodynamic from solid
[2] = TM/TG ratio (crystallization tendency); assay type: physicochemical; details: based on the most stable crystalline phase known
Aqueous solubility = assay type: physicochemical; details: aqueous medium (not further specified)
log D of Compound 1 = assay type: physicochemical; details: pH 7, pH=7

solubility at 2 h ([1]; simulated fasted state intestinal fluid, fassif): 50 µg/mL (≈ 65.2 µM)
solubility at 2 h ([1]; simulated gastric fluid): < 3 µg/mL
TM/TG ratio [2]: 1.12
solubility (Aqueous solubility): < 50 µg/mL
logD (log D of Compound 1): 3
Compound: C=C[C@@H]1C[C@]1(NC(=O)[C@@H]1C[C@@H]2CN1C(=O)[C@H](C(C)(C)C)NC(=O)O[C@@H]1C[C@H]1CCCCCc1nc3ccc(OC)cc3nc1O2)C(=O)NS(=O)(=O)C1CC1 [Compound 1, (1aR,5S,8S,10R,22aR)-5-tert-butyl-N-{(1R,2S)-1-[(cyclopropylsulfonyl)carbamoyl]-2-ethenylcyclopropyl}-14-methoxy-3,6-dioxo-1,1a,3,4,5,6,9,10,18,19,20,21,22,22a-tetradecahydro-8H-7,10-methanocyclopropa[18,19][1,10,3,6]dioxadiazacyclononadecino[11,12-b]quinoxaline-8-carboxamide]
